Data on 1 molecule can be found in patent US10478421B1, “Sortilin binding compounds, formulations, and uses thereof” (University of Florida, priority 2016, dated 2019).

For assay [1], the target named is T1, human sortilin (Homo sapiens, UniProt Q99523).
T1 sequence (Q99523 78-831): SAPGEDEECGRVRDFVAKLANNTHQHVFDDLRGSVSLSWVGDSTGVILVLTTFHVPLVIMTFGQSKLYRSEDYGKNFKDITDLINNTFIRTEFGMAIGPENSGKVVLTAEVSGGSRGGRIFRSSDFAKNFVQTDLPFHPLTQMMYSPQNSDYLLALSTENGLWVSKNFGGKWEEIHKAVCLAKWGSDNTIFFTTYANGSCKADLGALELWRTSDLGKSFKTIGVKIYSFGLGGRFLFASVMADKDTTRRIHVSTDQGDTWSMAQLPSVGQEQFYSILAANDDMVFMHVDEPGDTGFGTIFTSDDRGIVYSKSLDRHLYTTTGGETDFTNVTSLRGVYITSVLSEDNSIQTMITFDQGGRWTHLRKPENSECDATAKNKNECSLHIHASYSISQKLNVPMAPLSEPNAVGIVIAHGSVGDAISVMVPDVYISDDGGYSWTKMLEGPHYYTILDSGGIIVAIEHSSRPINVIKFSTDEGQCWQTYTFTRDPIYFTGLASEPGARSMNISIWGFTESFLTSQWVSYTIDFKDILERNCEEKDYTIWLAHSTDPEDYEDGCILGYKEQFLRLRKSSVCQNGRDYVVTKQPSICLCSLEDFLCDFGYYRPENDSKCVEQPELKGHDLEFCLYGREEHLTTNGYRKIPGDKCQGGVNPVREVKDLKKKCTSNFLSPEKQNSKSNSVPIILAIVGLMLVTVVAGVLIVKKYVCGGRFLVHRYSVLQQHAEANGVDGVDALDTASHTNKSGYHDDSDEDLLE
The assay is described as follows: Thermophoresis binding to human sortilin. The method, then: Due to inherent fluorescence of 541 small molecule, thermophoresis was performed in two different buffer conditions (PBS n=3 and MST n=2) and at two sets of concentration ranges. […] SPR indicates a high and low affinity binding site of cpd984 to human sortilin of hsortilin with Kd of about 200 μM and about 20 nM.

Assay [2] concerns McA cells. The assay is described as follows: Insulin signaling (pY-IRβ, p-AKT S473) by immunoblotting in McA cells. Format: cell-based, rat. Conditions: 10 μM, 18 h, then 250 nM insulin. The method, then: (FIG. 4A) McA cell lines with variable sortilin KD were incubated with vehicle (black bars) or with 10 μM cpd984 (gray bars) for 18 h (3-100 mm plates per condition). […] VLDL was isolated from media of each plate and VLDL-B100 was quantified by immuno slot blotting. Results presented are averages of the 3 plates ±S.D. (FIG. 4B) McA cells were incubated for 18 h in 1% BSA/DMEM±10 μM cpd984. McA cells were then stimulated with a time course of 250 nM insulin (0, 5, 10 and 15 min). IRβ and AKT, pY-IRβ, and p-AKT (S473) were evaluated by immunoblotting using protein and phosphospecific antibodies.
McA cell lysates were prepared and denatured proteins were separated by SDS-PAGE as described previously. Following electrophoretic transfer to PVDF membranes and blocking non-specific binding, membranes were incubated with primary antibodies overnight at 4° C. in blocking buffer. Antibody binding was detected by incubation for 1-2 h at room temperature with species specific secondary HRP-linked antibodies and developed using Amersham™ Prime reagent (GE Healthcare). Insulin signaling to IRβ and AKT were evaluated using nitrocellulose membranes (Bio-Rad) and phosphospecific (pY, p-AKT(Ser473) and mass specific antibodies. Chemiluminescence was measured using the ChemiDocXRS+system (Bio-Rad) and band intensities quantified using Image Lab 3.0.1 software (Bio-Rad).
In general terms: A western blot detects proteins with antibodies after separation by electrophoresis.

Assay [3] addresses T2, hsortilin (Homo sapiens, UniProt Q99523).
T2 construct: Human sortilin (hsortilin) (Ser78-Asn755) with C-terminal 6-His tag; purchased R&D Systems, Inc. (Minneapolis, Minn.)
T2 sequence (Q99523 78-755): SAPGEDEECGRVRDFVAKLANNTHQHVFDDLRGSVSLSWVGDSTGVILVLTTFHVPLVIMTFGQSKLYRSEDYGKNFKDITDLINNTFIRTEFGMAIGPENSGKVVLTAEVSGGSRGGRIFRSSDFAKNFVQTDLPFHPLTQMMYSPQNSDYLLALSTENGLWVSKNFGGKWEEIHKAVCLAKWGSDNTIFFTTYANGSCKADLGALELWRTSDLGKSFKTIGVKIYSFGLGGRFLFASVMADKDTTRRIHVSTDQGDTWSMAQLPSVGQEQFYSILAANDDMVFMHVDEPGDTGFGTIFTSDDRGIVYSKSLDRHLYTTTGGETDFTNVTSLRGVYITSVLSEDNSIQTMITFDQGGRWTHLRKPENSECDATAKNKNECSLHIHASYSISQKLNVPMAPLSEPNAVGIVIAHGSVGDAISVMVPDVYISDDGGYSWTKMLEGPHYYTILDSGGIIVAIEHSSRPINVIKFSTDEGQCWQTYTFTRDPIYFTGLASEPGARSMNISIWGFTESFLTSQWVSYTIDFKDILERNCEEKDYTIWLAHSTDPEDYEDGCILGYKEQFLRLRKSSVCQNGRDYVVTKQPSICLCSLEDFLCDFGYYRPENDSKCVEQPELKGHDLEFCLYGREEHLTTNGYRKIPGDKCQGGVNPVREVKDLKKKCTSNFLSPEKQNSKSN
The assay is described as follows: Liposome floatation assay of hsortilin binding to PIP3 liposomes. Conditions: increasing concentrations of cpd984. The method, then:
Unilamellar liposomes containing specific lipid compositions were produced using lipids dissolved in chloroform that were mixed according to mole percentages of 2.6 μmoles total phospholipid. Lipids were dried and desiccated overnight followed by incubation with PBS (2.6 ml) for 1 h. Lipids were resuspended by vortexing and disrupted by sonication for 30 min. To measure binding, a liposome floatation assay was used by adding concentrations 50 nM or 100 nM hsortilin to liposomes (150 μl) containing 5% PIP3, 20% PE and 75% PC; 10% PIP3, 20% PE, 70% PC; or 0% PIP3, 80% PC, and 20% PE as described. Samples containing 50 nM or 100 nM protein and liposomes in the presence and absence of cpd984 were incubated for 10 min at 30° C. and 630 μl of 1.65 M sucrose/PBS was added. Samples were overlaid with 630 μl of 0.75 M sucrose/PBS, and PBS to the top of the tube and centrifuged (200,000×g, 90 min, 4° C.), and floated liposomes recovered from the 0.75 M sucrose layer. Liposomes at the interface of the top and second fraction were recovered and diluted in 2 ml of PBS and re-isolated by centrifugation (16,000×g, 20 min, 4° C.). 50 μl PBS and 20 μl 5×SDS sample buffer was added to the final liposome pellet. Bound proteins were resolved by SDS-PAGE and detected by western immunoblotting following transfer to PVDF membranes.

In general, Kd refers to the equilibrium constant for the complex coming apart. A high value points to a looser complex. Take `CN1CCC[C@H]1C(=O)Nc1cccc(NC(=O)CCc2ccccc2)c1` [cpd984, (2S)-1-methyl-N-{3-[(3-phenylpropanoyl)-amino]phenyl} pyrrolidine-2-carboxamide]: the Kd was 0.007 µM in assay [1] (high affinity binding range) and 100 to 300 µM in assay [1] (low affinity binding range). Also, in assay [2], the “effect on insulin sensitivity (insulin-dependent pY of IRβ, pAKT)” value is on record as “did not alter insulin sensitivity”. In addition, the “effect on sortilin binding to PIP3 liposomes” value in assay [3] is on record as “increased sortilin binding to PIP3 liposomes”.
